In ChEMBL document CHEMBL1955728, “3,5-Disubstituted indole derivatives as selective human neuronal nitric oxide synthase (nNOS) inhibitors” (Bioorg Med Chem Lett, 2012) one finds IC50, Ratio IC50 and Activity data, which are given here for 17 molecules.

One experiment addresses T1, Nitric oxide synthase 3 (Homo sapiens, UniProt P29474).
T1 sequence (P29474 whole entry): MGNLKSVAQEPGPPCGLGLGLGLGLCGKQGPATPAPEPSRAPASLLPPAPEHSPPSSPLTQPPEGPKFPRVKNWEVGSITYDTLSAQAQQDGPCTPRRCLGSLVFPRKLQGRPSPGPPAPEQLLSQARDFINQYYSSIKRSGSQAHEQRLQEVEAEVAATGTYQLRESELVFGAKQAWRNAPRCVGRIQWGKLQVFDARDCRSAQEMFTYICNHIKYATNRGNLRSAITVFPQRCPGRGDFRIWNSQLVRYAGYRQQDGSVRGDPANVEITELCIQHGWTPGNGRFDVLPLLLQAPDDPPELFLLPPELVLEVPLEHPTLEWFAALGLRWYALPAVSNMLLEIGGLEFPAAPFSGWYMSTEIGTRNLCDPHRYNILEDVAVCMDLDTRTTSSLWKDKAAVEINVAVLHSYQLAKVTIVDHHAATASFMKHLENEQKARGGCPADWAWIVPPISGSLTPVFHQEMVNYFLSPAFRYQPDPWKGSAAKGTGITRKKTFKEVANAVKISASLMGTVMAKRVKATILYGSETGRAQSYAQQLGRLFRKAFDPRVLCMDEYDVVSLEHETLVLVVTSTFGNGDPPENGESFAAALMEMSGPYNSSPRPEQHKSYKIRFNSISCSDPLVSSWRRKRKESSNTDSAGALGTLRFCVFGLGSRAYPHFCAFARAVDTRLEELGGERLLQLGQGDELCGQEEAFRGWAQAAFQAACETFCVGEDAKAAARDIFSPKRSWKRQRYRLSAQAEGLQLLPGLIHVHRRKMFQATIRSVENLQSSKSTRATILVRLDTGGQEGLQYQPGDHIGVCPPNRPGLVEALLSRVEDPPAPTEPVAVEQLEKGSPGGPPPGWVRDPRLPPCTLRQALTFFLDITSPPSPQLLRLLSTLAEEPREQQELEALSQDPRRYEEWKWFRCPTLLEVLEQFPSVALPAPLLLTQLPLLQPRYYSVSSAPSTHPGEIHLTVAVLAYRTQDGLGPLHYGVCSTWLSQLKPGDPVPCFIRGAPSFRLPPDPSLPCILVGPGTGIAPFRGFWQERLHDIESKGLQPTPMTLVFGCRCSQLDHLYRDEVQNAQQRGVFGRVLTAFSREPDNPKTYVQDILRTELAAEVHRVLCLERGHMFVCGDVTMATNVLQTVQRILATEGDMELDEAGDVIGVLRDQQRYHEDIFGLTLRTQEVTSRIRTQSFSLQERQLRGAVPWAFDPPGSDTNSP
Description: Inhibition of human eNOS expressed in baculovirus infected insect Sf9 cells assessed as conversion of [3H]-L-arginine to [3H]-L-citrulline.

Experiment [1] has as its target Nitric oxide synthase 1 (Homo sapiens, UniProt P29475). In words: Inhibition of human nNOS expressed in baculovirus infected insect Sf9 cells assessed as conversion of [3H]-L-arginine to [3H]-L-citrulline.
For the next experiment, the species on record is Homo sapiens. In words: Selectivity ratio of IC50 for human eNOS to IC50 for human nNOS.
For experiment [2], the target named is Nitric oxide sythases; iNOS & nNOS (Homo sapiens) (UniProt P29475+P35228). In words: Selectivity ratio of IC50 for human iNOS to IC50 for human nNOS.
Nitric oxide sythases; iNOS & nNOS (Homo sapiens), sequence (P29475 whole entry, looked up): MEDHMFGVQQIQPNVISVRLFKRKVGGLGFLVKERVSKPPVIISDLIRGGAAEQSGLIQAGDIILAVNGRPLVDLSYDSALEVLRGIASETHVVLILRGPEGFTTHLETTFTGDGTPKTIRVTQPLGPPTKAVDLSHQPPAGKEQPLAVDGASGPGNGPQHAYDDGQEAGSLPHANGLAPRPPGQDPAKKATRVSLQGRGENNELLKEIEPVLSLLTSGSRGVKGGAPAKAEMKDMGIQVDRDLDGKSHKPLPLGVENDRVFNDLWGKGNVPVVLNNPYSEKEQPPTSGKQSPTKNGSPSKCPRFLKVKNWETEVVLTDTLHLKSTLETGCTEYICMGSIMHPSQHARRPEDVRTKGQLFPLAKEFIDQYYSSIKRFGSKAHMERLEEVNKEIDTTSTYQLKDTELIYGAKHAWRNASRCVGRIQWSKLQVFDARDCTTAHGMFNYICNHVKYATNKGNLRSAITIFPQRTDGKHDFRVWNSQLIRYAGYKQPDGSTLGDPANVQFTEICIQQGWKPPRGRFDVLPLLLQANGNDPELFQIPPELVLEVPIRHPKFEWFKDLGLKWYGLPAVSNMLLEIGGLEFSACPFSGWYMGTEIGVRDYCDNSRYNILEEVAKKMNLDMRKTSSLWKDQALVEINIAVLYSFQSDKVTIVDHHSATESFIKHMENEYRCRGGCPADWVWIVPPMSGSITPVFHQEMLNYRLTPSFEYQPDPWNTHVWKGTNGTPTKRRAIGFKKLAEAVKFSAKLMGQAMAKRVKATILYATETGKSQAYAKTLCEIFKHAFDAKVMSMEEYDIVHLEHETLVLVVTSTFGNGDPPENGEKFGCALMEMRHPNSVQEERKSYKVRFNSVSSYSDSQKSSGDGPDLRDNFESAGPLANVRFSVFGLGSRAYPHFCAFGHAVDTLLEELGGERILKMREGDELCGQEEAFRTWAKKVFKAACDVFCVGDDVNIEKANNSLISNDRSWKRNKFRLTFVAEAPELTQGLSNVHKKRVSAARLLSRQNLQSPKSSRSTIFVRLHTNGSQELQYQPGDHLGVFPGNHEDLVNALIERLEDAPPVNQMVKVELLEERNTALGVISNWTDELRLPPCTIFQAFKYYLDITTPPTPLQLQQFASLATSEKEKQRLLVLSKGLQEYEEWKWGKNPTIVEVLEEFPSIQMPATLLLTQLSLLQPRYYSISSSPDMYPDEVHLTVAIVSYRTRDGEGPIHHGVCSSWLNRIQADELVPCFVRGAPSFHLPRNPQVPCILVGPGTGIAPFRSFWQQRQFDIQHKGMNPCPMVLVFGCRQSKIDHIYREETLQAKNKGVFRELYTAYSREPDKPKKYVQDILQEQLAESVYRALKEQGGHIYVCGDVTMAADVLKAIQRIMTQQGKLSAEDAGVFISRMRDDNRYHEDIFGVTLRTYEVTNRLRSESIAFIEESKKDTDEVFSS
Nitric oxide sythases; iNOS & nNOS (Homo sapiens), sequence (P35228 whole entry, looked up): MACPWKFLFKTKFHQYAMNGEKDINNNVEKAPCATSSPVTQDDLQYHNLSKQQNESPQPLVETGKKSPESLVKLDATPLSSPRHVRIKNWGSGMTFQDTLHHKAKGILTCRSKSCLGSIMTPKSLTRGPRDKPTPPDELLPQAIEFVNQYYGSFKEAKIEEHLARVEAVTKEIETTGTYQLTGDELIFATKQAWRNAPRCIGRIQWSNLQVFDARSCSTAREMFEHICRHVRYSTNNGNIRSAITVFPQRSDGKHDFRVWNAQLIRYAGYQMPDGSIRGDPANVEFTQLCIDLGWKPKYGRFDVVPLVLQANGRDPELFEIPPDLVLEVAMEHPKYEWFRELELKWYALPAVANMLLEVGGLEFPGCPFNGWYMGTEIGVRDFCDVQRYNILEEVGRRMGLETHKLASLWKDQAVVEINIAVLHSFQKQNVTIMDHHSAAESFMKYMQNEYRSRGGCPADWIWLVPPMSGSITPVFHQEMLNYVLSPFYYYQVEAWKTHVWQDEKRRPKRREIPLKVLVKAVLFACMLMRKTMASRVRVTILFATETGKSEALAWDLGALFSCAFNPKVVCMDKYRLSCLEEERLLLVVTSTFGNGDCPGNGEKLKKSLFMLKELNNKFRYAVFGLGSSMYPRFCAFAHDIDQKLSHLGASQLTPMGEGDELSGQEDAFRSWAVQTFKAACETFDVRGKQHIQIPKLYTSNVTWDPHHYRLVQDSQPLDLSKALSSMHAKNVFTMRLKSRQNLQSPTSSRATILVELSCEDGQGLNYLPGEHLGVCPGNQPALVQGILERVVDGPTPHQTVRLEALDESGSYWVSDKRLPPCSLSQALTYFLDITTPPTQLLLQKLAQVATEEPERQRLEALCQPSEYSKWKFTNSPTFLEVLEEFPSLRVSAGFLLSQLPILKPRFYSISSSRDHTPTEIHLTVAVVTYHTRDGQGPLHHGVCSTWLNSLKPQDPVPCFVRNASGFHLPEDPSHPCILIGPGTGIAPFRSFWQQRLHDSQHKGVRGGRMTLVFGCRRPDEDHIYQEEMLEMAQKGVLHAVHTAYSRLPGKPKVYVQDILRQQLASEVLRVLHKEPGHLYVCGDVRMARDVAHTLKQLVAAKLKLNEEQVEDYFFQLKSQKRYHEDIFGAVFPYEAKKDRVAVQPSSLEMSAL
Experiment [3] has as its target Nitric oxide synthase 1 (Rattus norvegicus, UniProt P29476). In words: Inhibition of rat nNOS.
The subject of experiment [4] is Rattus norvegicus. In words: Antihyperalgesic activity in rat L5/L6 SNL model of neuropathic pain assessed as reversal of thermal hyperalgesia at 10 mg/kg, ip measured after 30 to 120 mins. The experiment is classed as functional, organism-based. Also noted: dose 10 mg/kg.
Experiment [5] has as its target Nitric oxide synthase, inducible (Homo sapiens, UniProt P35228). In words: Inhibition of human iNOS expressed in baculovirus infected insect Sf9 cells assessed as conversion of [3H]-L-arginine to [3H]-L-citrulline.
A further experiment deals with T2, Cytochrome P450 1A2 (Homo sapiens, UniProt P05177).
T2 sequence (P05177 whole entry): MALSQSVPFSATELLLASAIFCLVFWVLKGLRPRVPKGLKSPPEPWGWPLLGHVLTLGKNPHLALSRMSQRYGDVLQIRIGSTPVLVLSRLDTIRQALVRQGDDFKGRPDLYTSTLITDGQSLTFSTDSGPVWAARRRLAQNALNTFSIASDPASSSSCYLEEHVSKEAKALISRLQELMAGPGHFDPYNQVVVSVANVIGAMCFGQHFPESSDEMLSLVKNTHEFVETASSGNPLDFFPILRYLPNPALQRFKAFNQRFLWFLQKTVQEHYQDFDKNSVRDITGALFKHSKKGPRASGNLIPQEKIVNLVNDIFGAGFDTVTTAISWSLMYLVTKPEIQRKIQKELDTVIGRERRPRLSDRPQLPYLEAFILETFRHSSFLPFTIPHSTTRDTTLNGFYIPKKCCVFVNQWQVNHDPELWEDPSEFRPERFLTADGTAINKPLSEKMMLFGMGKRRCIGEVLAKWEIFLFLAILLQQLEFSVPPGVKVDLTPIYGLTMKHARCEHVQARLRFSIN
Description: Inhibition of human CYP1A2. The format is ADME.

In experiment [6] the test system is Rattus norvegicus. In words: Antihyperalgesic activity in rat L5/L6 SNL model of neuropathic pain assessed as reversal of thermal hyperalgesia at 10 mg/kg, ip measured after 30 mins. The experiment is classed as functional. Conditions: route intraperitoneal.
For another experiment, the target named is Cytochrome P450 2C9 (Homo sapiens, UniProt P11712). In words: Inhibition of human CYP2C9. The experiment is classed as ADME.
Cytochrome P450 2C9, sequence (P11712 whole entry): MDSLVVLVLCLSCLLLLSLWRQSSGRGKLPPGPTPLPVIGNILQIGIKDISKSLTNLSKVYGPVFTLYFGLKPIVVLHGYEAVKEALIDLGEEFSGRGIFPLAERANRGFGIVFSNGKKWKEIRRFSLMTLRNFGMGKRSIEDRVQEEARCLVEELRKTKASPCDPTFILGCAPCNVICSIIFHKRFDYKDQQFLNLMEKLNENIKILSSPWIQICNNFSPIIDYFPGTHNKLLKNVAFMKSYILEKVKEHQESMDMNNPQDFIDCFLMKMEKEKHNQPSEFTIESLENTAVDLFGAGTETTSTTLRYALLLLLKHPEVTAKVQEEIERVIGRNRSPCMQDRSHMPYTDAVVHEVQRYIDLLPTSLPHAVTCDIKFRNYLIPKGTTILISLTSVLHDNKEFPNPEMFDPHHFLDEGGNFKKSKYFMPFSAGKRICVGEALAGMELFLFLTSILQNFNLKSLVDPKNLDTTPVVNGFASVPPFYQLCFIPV
A short description of experiment [7]: Vasoconstrictive activity in human arteries assessed as inhibition of acetylcholine-induced vasorelaxation at 10 uM in presence of thromboxane A2 mimetic agent U46619. The format is tissue-based, Artery.
In a further experiment the target is Cytochrome P450 2C19 (Homo sapiens, UniProt P33261). Description: Inhibition of human CYP2C19. The experiment is classed as ADME.
Another experiment concerns the target Cytochrome P450 3A4 (Homo sapiens, UniProt P08684). Description: Inhibition of human CYP3A4. The experiment is classed as ADME.
Another experiment has as its target Cytochrome P450 2D6 (Homo sapiens, UniProt P10635). In words: Inhibition of human CYP2D6. The experiment is classed as ADME.

pIC50: −log10 of the molar value. Active and inactive are the calls of the source. The rule behind the calls is not given here.

Nitric oxide synthase 1 (Homo sapiens, UniProt P29475), sequence (P29475 whole entry): as the sequence (P29475 whole entry, looked up) above
Nitric oxide synthase, inducible, sequence (P35228 whole entry): as the sequence (P35228 whole entry, looked up) above
Nitric oxide synthase 1 (Rattus norvegicus, UniProt P29476), sequence (P29476 whole entry): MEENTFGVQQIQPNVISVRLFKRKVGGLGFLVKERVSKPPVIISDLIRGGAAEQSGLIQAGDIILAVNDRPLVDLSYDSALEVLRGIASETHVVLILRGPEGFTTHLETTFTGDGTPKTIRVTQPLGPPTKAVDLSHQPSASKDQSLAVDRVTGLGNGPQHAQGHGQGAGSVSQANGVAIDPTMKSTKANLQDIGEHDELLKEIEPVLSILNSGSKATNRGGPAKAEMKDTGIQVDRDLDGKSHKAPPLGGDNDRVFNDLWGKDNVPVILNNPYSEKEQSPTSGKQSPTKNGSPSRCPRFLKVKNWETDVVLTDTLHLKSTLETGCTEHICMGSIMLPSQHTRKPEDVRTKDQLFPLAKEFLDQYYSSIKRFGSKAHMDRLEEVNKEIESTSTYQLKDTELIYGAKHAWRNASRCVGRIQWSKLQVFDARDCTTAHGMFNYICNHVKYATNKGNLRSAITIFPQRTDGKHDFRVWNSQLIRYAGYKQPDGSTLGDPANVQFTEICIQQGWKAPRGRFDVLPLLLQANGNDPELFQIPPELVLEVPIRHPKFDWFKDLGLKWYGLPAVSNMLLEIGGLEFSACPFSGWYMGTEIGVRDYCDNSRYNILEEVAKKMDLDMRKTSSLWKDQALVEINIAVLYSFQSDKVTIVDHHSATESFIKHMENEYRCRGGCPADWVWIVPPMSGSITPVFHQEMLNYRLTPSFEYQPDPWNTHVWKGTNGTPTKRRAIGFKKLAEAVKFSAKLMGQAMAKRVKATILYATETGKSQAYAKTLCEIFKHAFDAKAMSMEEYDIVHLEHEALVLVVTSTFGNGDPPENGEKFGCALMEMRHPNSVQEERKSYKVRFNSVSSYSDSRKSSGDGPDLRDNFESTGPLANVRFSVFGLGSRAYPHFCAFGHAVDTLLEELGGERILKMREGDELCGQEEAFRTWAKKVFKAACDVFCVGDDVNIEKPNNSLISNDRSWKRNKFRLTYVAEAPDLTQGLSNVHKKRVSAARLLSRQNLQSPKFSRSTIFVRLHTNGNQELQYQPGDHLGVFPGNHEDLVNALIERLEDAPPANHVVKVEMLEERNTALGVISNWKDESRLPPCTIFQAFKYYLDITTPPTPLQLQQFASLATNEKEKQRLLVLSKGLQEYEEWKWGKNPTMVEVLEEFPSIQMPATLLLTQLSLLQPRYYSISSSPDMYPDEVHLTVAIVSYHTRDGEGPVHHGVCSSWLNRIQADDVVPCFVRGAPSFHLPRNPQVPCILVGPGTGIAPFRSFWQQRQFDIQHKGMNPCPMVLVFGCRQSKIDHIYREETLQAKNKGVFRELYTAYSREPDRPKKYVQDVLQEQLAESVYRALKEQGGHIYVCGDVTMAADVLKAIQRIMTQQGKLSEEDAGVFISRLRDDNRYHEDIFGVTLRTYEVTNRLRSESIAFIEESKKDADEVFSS
Cytochrome P450 2D6, sequence (P10635 whole entry): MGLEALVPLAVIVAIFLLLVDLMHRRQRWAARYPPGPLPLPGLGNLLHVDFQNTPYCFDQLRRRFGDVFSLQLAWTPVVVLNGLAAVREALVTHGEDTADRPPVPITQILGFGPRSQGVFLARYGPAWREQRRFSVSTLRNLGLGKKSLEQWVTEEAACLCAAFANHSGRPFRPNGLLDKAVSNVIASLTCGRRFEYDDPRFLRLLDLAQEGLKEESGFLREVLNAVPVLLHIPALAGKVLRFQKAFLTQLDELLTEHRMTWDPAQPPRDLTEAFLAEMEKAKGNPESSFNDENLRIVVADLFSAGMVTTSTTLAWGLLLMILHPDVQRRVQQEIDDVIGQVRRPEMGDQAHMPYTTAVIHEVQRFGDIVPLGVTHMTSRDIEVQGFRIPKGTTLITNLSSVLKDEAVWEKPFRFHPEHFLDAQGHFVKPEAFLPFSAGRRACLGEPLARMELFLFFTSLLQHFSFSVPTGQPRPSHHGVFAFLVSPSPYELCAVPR

Take `CN1CCC(c2c[nH]c3ccc(NC(=N)c4cccs4)cc23)CC1`: the figures for the pIC50 on Nitric oxide synthase 3 and at Nitric oxide synthase 1 [1] were 4.62 and 5.99, respectively.
For `CS/C(N)=N/c1ccc2[nH]cc(C3=CCN(C)CC3)c2c1`, the Ratio IC50 in the experiment listed under Homo sapiens is 16; in experiment [2] it was 8.
For `CN1CCC(c2c[nH]c3ccc(/N=C(\N)c4cccs4)cc23)CC1`, the Ratio IC50 in [2] is 57.
As to `CN1CC=C(c2c[nH]c3ccc(NC(=N)c4cccs4)cc23)CC1`, the pIC50 against Nitric oxide synthase 1 [3] was 5.64; on Nitric oxide synthase 3, 4.65; at Nitric oxide synthase 1 [1], 6.72.
For `CN1CC=C(c2c[nH]c3ccc(/N=C(\N)c4cccs4)cc23)CC1`, the Ratio IC50 came out at 118 in the experiment listed under Homo sapiens and 105 in experiment [2].
`Cc1ccc(C(=N)Nc2ccc3[nH]cc(C4=CCN(C)CC4)c3c2)s1`: the Ratio IC50 in the experiment filed under Homo sapiens worked out at 6. Further, the pIC50 at Nitric oxide synthase 3 is 4.19; at Nitric oxide synthase 1 [1], 4.98.
With `CN1CC=C(c2c[nH]c3ccc(/N=C(\N)c4ccco4)cc23)CC1`, the figures for the Ratio IC50 (in the experiment filed under Homo sapiens; in experiment [2]) were 66 and 106, respectively. Moreover, the result in the experiment with Rattus norvegicus [4] was Active.
`CSC(=N)Nc1ccc2[nH]cc(C3=CCN(C)CC3)c2c1`: the pIC50 in [5] is 4.77.
`CN1CC=C(c2c[nH]c3cc(NC(=N)c4cccs4)ccc23)CC1`: the Ratio IC50 in the experiment listed under Homo sapiens was found to be 33; in [2], 15.
Regarding `CCS/C(N)=N/c1ccc2[nH]cc(C3=CCN(C)CC3)c2c1`, the Ratio IC50 in the experiment listed under Homo sapiens was determined as 22.
Still for that read-out and setting: in the case of `CN1CC=C(c2c[nH]c3ccc(NC(=S)NC(=O)c4ccccc4)cc23)CC1` it was 3.
`CN1CC=C(c2c[nH]c3ccc(C/N=C(\N)c4cccs4)cc23)CC1`: the Ratio IC50 was found to be 50 in the experiment listed under Homo sapiens and 66 in experiment [2].
Regarding `CN1CC=C(c2c[nH]c3ccc(NC(=N)c4ccco4)cc23)CC1.Cl.Cl`, the pIC50 on Cytochrome P450 1A2 is 5.02; at Nitric oxide synthase 1 [3] it was 5.59; against Cytochrome P450 2C9, less than 4.00; on Nitric oxide synthase 3, 4.44; at Cytochrome P450 2C19, less than 4.00; on Nitric oxide synthase 1 [1] it was 6.26. Besides, the figures for the pIC50 against Cytochrome P450 3A4 and at Cytochrome P450 2D6 were less than 4.00 and 4.69, respectively. Besides, the Activity in the experiment with Rattus norvegicus [6] worked out at 94%. The IC50 entry in [7] is reported as “Not Active”.
As for `CN1CC=C(c2c[nH]c3ccc(CNC(=N)c4cccs4)cc23)CC1`, the pIC50 on Nitric oxide synthase 3 is 4.19; at Nitric oxide synthase 1 [1], 5.89.
With `CN1CCC(c2c[nH]c3ccc(NC(=N)c4ccccc4)cc23)CC1`, the Ratio IC50 in the experiment listed under Homo sapiens was 14. The pIC50 at Nitric oxide synthase 3 is 3.60; at Nitric oxide synthase 1 [1], 4.74.
As for `CN1CCC(c2c[nH]c3ccc(NC(=N)c4ccco4)cc23)CC1`, the pIC50 in [5] is 3.97.
With `CN1CCC(c2c[nH]c3ccc(/N=C(\N)c4ccco4)cc23)CC1`, the figures for the Ratio IC50 (in the experiment listed under Homo sapiens; in experiment [2]) were 43 and 48, respectively.
